In the test the target is Tryptophanase (Escherichia coli (strain K12), UniProt P0A853). The test can be described thus: Enzyme Inhibition Assay. The conditions noted are these: pH 7.8; 25 °C. The source says: Enzyme inhibition assay using tryptophanase.

Structures can show the parent of a compound that is named as a salt.

Chain of Tryptophanase (P0A853 whole entry): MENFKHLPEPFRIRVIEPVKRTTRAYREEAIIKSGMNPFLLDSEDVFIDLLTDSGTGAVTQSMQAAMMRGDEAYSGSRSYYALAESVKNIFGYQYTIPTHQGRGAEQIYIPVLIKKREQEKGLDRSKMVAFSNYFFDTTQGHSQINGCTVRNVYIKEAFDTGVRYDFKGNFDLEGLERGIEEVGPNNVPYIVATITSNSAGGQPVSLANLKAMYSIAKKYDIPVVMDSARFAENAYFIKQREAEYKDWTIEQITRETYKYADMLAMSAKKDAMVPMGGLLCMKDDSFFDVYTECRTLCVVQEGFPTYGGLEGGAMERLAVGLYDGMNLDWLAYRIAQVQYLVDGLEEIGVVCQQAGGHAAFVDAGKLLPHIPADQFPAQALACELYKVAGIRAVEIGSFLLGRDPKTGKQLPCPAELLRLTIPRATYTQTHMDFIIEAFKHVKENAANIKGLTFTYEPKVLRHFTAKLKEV

By Ki is commonly meant a measure of affinity in units of concentration, obtained from inhibition or displacement. `CC(=O)NC(Cc1c[nH]c2ccccc12)C(=O)O` (configuration not stated) [N-acetyl tryptophan] came in with a Ki of 48 µM. `CCOC(=O)C(N)Cc1c[nH]c2ccccc12` [L-tryptophan-ethylester (p-toluene sulfuric acid salt)] returned a Ki of 52 µM.

Source of the values: BindingDB's records for doi:10.1080/14756360802187612 (Ben-Gurion University of The Negev, 2009).
